Experimental data: ChEMBL document CHEMBL4808238, “Small Molecule Inhibitors of KRAS Mutant as a Therapeutic Strategy for the Treatment of Cancer” (ACS Med Chem Lett, 2021)

Target: GTPase KRas (Homo sapiens, UniProt P01116, G12C)
Assay: Inhibition of biotinylated KRAS G12C mutant (unknown origin) assessed as inhibition of SOS-catalyzed nucleotide exchange preincubated for 60 mins followed by addition of human recombinant SOS protein and unlabeled GTP and measured after 60 mins by TR-FRET analysis

GTPase KRas, sequence (P01116 whole entry G12C): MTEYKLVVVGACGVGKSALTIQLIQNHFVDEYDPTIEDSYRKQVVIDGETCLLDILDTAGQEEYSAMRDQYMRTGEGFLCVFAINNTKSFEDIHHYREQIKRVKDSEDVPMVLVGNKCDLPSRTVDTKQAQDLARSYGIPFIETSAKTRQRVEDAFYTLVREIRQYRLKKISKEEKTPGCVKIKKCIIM

SMILES	IC50 [nM]
C=C(F)C(=O)N1CCN(c2cc(C(=O)N[C@H](C)CN(C)C)nc3c2CCN(c2cccc4cccc(C)c24)C3)C[C@@H]1CC#N	8.3
C=CC(=O)N1CCN(c2cc(C(=O)NC3(C)CCCNC3)nc3c2CCN(c2cccc4cccc(C)c24)C3)C[C@@H]1CC#N (stereo partly specified)	5.4
C=CC(=O)N1CCN(c2cc(C(=O)NCC3CCCCN3)nc3c2CCN(c2cccc4cccc(C)c24)C3)C[C@@H]1CC#N (stereo partly specified)	8.3
C=CC(=O)N1CCN(c2cc(C(=O)N[C@H](C)CN3CC(C)(O)C3)nc3c2CCN(c2cccc4cccc(C)c24)C3)C[C@@H]1CC#N	2.2
C=CC(=O)N1CCN(c2cc(C(=O)NC[C@H]3CCCN3)nc3c2CCN(c2cccc4cccc(C)c24)C3)C[C@@H]1CC#N	6.2
C=CC(=O)N1CCN(c2cc(C(=O)N[C@H](C)CN(C)C)nc3c2CCN(c2c(Cl)c(C)cc4[nH]ncc24)C3)C[C@@H]1CC#N	0.9
C=C(F)C(=O)N1CCN(c2cc(C(=O)NC(C)CN3CCC(C)(O)C3)nc3c2CCN(c2cccc4cccc(C)c24)C3)C[C@@H]1CC#N (stereo partly specified)	5
C=CC(=O)N1CCN(c2cc(C(=O)NC3(CC)CCNC3)nc3c2CCN(c2cccc4cccc(C)c24)C3)C[C@@H]1CC#N (stereo partly specified)	4.5
C=CC(=O)N1CCN(c2cc(C(=O)N[C@@H]3CCC[C@H]3N(C)C)nc3c2CCN(c2cccc4cccc(C)c24)C3)C[C@@H]1CC#N	1
C=CC(=O)N1CCN(c2cc(C(=O)NC(C)CN3CCC(C)(O)C3)nc3c2CCN(c2cccc4cccc(C)c24)C3)C[C@@H]1CC#N (stereo in doubt; 75)	7.2
C=CC(=O)N1CCN(c2cc(C(=O)NC(C)CN3CCC(C)(O)C3)nc3c2CCN(c2cccc4cccc(C)c24)C3)C[C@@H]1CC#N (stereo in doubt; 76)	6.2
